pIC50: −log10 of the molar value. Each block holds one molecule with its values, some of them ahead of it.
Columns and labels:
A549 [1] = assay: Cytotoxicity against human A549 cells assessed as reduction in cell growth incubated for 24 hrs by MTT assay; type: functional, cell-based; settings: A549, 24 h
MCF7 [2] = assay: Cytotoxicity against human MCF7 cells assessed as reduction in cell growth incubated for 24 hrs by MTT assay; type: functional, cell-based; settings: MCF7, 24 h
MCF-12A = assay: Cytotoxicity against human MCF-12A cells assessed as reduction in cell viability incubated for 24 hrs by MTT assay; type: functional, cell-based
[3] = target: Vascular endothelial growth factor receptor 2 (Homo sapiens, UniProt P35968); assay: Inhibition of VEGFR-2 (unknown origin) by ELISA analysis
Sequence of Vascular endothelial growth factor receptor 2 (P35968 whole entry): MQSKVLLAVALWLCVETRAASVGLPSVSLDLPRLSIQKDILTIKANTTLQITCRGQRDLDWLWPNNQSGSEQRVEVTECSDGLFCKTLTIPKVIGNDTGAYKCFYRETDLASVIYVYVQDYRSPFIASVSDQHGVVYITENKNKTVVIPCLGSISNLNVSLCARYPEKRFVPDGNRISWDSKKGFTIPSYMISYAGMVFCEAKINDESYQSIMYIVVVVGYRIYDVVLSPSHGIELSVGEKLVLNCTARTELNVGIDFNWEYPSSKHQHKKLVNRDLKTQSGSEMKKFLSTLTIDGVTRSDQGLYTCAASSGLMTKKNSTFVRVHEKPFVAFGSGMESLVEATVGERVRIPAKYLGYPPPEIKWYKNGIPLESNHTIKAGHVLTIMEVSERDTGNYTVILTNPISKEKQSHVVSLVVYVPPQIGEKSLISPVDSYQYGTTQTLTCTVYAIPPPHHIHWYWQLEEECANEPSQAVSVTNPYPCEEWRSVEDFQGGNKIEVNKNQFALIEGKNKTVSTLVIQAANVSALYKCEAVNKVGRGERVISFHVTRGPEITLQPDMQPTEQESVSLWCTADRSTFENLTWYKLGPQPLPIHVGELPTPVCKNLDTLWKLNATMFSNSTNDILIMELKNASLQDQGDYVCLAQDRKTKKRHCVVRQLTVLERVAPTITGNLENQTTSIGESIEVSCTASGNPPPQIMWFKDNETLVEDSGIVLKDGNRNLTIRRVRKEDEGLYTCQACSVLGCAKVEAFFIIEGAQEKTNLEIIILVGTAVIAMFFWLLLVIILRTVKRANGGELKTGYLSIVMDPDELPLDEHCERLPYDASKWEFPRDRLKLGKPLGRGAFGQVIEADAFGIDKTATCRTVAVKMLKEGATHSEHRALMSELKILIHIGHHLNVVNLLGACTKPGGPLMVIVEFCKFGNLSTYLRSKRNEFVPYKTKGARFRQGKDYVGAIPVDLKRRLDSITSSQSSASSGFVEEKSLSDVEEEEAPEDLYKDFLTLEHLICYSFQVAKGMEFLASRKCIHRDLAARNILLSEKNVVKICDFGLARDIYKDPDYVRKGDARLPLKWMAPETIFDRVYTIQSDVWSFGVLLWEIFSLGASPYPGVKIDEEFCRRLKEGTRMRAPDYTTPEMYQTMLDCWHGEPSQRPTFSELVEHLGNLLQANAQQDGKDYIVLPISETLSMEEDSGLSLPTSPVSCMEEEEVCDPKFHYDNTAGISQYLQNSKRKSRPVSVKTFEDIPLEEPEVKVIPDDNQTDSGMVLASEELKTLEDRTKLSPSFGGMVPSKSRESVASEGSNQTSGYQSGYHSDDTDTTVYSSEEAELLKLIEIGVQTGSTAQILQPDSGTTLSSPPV

[4] = target: Lysine-specific histone demethylase 1A (Homo sapiens, UniProt O60341); assay: Inhibition of LSD1 (unknown origin)
HUVEC = assay: Antiproliferative activity against VEGF-stimulated HUVEC assessed as inhibition of cell growth incubated for 3 days by MTT assay; type: functional, cell-based; settings: Homo sapiens, 72 h
Tyrosinase = Tyrosinase (Homo sapiens, UniProt P14679); assay: Inhibition of human tyrosinase
Sequence of Tyrosinase (P14679 whole entry): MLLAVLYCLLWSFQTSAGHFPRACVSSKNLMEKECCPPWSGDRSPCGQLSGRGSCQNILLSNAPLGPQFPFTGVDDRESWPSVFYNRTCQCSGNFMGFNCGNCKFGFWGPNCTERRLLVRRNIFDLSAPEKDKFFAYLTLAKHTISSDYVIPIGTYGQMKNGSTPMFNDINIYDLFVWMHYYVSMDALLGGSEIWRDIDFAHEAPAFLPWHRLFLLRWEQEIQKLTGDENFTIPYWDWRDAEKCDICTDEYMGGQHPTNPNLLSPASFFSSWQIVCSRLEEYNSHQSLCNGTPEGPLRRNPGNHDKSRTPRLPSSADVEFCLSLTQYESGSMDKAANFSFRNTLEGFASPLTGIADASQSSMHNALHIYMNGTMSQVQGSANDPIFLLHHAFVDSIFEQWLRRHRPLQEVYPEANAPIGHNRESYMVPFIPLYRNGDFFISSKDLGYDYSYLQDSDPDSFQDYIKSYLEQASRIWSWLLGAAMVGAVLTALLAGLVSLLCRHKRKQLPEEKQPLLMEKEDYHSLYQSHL

Mushroom tyrosinase [5] = target: T1, Mushroom tyrosinase (Agaricus bisporus, UniProt O42713+Q00024+C7FF04+C7FF05); assay: Inhibition of mushroom Tyrosinase; type: protein assay
SUNE1 = assay: Anticancer activity against human SUNE1 cells assessed as reduction in cell growth; type: toxicity, cell-based
CNE-2 = assay: Anticancer activity against human CNE-2 cells assessed as reduction in cell growth; type: functional, cell-based
DU-145 = assay: Cytotoxicity against human DU-145 cells assessed as reduction in cell growth by MTT assay; type: functional, cell-based
A2780 = assay: Cytotoxicity against human A2780 cells assessed as reduction in cell growth by MTT assay; type: functional, cell-based
HT-29 = assay: Cytotoxicity against human HT-29 cells assessed as reduction in cell growth by MTT assay; type: functional, cell-based
MCF7 [6] = assay: Cytotoxicity against human MCF7 cells assessed as reduction in cell growth by MTT assay; type: functional, cell-based
A-431 = assay: Cytotoxicity against human A-431 cells assessed as reduction in cell growth by MTT assay; type: functional, cell-based
[7] = Cytotoxicity against mouse NIH3T3 cells assessed as reduction in cell viability incubated for 24 hrs by MTT assay; type: toxicity, cell-based
T47D = assay: Cytotoxicity against human T47D cells assessed as reduction in cell viability by MTT assay; type: functional, cell-based
A549 [8] = assay: Anticancer activity against human A549 cells assessed as inhibition of cell growth; type: functional, cell-based
U-251 = assay: Anticancer activity against human U-251 cells assessed as reduction in cell growth; type: functional, cell-based
[9] = Cytotoxicity against human HFL1 cells assessed as cell growth inhibition incubated for 24 hrs by MTT assay; type: toxicity, cell-based
HCT-15 = assay: Growth inhibition of human HCT-15 cells incubated for 72 hrs by SRB assay; type: functional
[10] = target: Poly [ADP-ribose] polymerase 1 (Homo sapiens, UniProt P09874); assay: Inhibition of PARP-1 (unknown origin)
MCF7 [11] = assay: Cytotoxicity against human MCF7 cells assessed as reduction in cell viability incubated for 96 hrs by MTT assay; type: functional
MDA-MB-436 = assay: Cytotoxicity against human MDA-MB-436 cells assessed as reduction in cell viability incubated for 96 hrs by MTT assay; type: functional
[12] = target: Poly [ADP-ribose] polymerase 2 (Homo sapiens, UniProt Q9UGN5); assay: Inhibition of PARP-2 (unknown origin)
Mushroom tyrosinase [13] = target: T1, Mushroom tyrosinase; assay: Inhibition of mushroom tyrosinase using L-DOPA as substrate preincubated for 10 mins followed by substrate addition and measured after 15 mins by spectrophotometric method; type: protein assay
DNA topoisomerase 1 = DNA topoisomerase 1 (Homo sapiens, UniProt P11387); assay: Inhibition of DNA topoisomerase I (unknown origin)
Sequence of DNA topoisomerase 1 (P11387 whole entry): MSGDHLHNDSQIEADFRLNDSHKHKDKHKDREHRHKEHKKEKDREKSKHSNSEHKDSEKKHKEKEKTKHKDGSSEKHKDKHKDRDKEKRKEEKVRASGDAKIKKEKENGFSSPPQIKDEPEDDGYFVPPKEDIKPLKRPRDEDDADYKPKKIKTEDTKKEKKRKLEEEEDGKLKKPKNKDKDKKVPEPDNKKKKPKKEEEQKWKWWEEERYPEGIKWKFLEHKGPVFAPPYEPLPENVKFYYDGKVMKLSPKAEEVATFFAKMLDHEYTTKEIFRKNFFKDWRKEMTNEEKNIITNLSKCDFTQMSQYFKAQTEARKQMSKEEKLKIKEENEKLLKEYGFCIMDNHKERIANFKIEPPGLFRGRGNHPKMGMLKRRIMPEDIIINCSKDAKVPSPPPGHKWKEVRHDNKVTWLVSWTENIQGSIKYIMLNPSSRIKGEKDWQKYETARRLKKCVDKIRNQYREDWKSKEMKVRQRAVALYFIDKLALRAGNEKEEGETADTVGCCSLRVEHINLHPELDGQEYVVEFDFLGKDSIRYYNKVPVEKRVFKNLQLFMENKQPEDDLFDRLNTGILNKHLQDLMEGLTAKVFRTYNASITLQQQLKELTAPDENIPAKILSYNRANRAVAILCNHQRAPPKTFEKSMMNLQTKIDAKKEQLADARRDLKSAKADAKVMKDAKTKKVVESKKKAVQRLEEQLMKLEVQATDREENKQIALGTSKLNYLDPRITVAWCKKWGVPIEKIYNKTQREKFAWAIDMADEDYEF

[14] = target: Kinesin-like protein KIF11 (Homo sapiens, UniProt P52732); assay: Inhibition of KSP/Eg5 (unknown origin)
Sequence of Kinesin-like protein KIF11 (P52732 whole entry): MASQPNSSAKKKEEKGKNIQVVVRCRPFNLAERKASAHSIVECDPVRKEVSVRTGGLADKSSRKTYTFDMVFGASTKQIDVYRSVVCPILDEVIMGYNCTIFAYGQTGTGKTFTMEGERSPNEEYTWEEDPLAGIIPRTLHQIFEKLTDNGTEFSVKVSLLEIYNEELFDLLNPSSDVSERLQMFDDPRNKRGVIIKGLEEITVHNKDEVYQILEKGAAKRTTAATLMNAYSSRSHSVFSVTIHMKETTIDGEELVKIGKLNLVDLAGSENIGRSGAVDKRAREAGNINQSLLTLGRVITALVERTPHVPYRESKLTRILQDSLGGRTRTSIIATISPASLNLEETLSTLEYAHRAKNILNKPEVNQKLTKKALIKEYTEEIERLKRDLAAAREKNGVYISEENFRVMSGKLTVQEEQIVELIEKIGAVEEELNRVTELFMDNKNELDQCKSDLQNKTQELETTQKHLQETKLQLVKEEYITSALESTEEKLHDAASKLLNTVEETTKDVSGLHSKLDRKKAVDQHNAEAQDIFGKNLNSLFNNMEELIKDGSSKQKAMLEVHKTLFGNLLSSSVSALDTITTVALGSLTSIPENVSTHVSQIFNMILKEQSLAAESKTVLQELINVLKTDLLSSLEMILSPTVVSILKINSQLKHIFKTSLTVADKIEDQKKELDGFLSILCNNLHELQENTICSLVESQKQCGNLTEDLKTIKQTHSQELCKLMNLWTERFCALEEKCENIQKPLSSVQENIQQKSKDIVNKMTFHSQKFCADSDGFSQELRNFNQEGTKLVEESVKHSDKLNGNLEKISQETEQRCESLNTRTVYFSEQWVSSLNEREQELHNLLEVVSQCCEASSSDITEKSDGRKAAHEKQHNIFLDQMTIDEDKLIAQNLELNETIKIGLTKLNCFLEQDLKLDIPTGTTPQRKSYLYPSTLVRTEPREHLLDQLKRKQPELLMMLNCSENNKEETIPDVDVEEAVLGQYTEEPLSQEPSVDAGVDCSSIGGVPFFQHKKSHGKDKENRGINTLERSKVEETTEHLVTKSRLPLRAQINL

[15] = target: T2, Hepatocyte growth factor receptor (Homo sapiens, UniProt P08581); assay: Inhibition of human c-Met
T2 sequence (P08581 whole entry): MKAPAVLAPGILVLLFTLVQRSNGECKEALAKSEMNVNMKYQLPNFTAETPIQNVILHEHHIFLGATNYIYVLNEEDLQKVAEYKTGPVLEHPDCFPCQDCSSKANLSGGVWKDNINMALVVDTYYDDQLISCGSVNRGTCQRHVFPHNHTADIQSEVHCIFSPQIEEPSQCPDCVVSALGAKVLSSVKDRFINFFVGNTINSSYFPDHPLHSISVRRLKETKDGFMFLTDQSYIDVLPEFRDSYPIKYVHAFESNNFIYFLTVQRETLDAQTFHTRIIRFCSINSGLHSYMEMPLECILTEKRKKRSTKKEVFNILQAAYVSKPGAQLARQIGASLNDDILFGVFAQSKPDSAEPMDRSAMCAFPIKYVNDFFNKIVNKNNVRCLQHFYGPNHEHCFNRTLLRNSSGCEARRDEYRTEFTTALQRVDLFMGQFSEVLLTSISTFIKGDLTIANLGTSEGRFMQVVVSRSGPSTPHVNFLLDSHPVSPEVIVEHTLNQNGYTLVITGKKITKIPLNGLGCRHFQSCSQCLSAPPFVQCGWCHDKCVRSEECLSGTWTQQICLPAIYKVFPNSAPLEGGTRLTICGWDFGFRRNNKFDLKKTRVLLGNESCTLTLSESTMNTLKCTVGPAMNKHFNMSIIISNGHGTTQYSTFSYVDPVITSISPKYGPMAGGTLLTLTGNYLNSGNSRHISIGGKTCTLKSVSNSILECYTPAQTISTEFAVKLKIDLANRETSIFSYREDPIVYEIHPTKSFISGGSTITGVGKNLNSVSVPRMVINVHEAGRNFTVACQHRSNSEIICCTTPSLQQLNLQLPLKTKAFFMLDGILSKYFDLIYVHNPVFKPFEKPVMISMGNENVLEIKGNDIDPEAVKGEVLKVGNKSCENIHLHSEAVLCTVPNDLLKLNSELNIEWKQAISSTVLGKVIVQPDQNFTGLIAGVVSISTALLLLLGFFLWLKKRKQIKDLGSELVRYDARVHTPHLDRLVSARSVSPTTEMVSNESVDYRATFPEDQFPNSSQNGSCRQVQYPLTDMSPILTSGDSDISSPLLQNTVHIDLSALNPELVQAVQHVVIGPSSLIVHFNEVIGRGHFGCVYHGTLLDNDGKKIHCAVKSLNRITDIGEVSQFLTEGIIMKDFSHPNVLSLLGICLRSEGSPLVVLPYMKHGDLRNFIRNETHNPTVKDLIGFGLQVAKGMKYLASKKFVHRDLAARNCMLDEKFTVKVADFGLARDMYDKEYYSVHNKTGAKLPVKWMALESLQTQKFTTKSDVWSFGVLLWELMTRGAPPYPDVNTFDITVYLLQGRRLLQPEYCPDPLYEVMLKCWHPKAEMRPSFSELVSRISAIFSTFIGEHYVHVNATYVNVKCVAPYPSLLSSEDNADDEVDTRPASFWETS

MKN-45 = assay: Antiproliferative activity against human MKN-45 cells assessed as reduction in cell growth incubated for 72 hrs by CCK-8 assay; type: functional, cell-based; settings: MKN-45, 72 h
MDA-MB-231 = assay: Cytotoxicity against human MDA-MB-231 cells assessed as reduction in cell viability by MTT assay; type: functional, cell-based
A549 [16] = assay: Antiproliferative activity against human A549 cells transfected with sh-EZH2 vector assessed as reduction in cell growth incubated for 48 hrs by MTT assay; type: functional, cell-based; settings: A549, 48 h
A549 [17] = assay: Antiproliferative activity against human A549 cells transfected with sh-empty vector assessed as reduction in cell growth incubated for 48 hrs by MTT assay; type: functional, cell-based; settings: A549, 48 h
K562 [18] = assay: Antiproliferative activity against human K562 cells assessed as reduction in cell growth incubated for 48 hrs by MTT assay; type: functional, cell-based; settings: K562, 48 h
[19] = target: T2, Hepatocyte growth factor receptor; assay: Inhibition of c-Met (unknown origin) by mobility shift assay
A549 [20] = assay: Cytotoxicity against human A549 cells assessed as reduction in cell growth incubated for 72 hrs by MTT assay; type: functional, cell-based; settings: A549, 72 h
HepG2 = assay: Cytotoxicity against human HepG2 cells assessed as reduction in cell growth incubated for 72 hrs by MTT assay; type: functional, cell-based; settings: HepG2, 72 h
MCF7 [21] = assay: Cytotoxicity against human MCF7 cells assessed as reduction in cell growth incubated for 72 hrs by MTT assay; type: functional, cell-based; settings: MCF7, 72 h
K562 [22] = assay: Antiproliferative activity against human K562 cells assessed as reduction in cell growth incubated for 48 hrs by WST-8 assay; type: functional, cell-based; settings: K562, 48 h

SMILES: O=C(NNC(=S)Nc1ccc(Br)cc1)c1cc2c([nH]c3ccccc32)c(-c2cccc(O)c2)n1
- pIC50 (A549 [1]): 5.44
- pIC50 (MCF7 [2]): 5.44
- pIC50 (MCF-12A): 4.52

- pIC50 [3]: 5.94
SMILES: O=C(CN1CCCCC1)Nc1cccc(-c2cc3ccccc3[nH]2)c1

- pIC50 [4]: 8.11
SMILES: CCOCc1cccc(NC(=O)c2cc3sccc3n2C)c1CCOc1ccc(OC[C@@H]2CCNC2)cc1

SMILES: CNC(=O)c1ccccc1Sc1ccc2c(/N=N/c3cc(C)[nH]c3C)n[nH]c2c1
- pIC50 (HUVEC): 4.36

- pIC50 (Tyrosinase): 3.76
- IC50 (Mushroom tyrosinase [5]): 0.07 µM
SMILES: O=C(N/N=C/c1ccc(O)cc1)c1cc2ccccc2[nH]1

- IC50 (Mushroom tyrosinase [5]): 94.23 µM
SMILES: S=C(N/N=C/c1ccc[nH]1)Nc1ccccc1

SMILES: O=C(N/N=C/c1ccc([N+](=O)[O-])n1Cc1cccc(F)c1)c1cccc(O)c1O
- pIC50 (SUNE1): 7.10
- pIC50 (CNE-2): 5.35

SMILES: O=C(NCc1ccccc1)C(CNC(=O)C1C(C(=O)O)[C@@H]2CC[C@H]1O2)Cc1ccc[nH]1 (some centres not stated)
- pIC50 (DU-145): 7.77
- pIC50 (A2780): 7.77
- pIC50 (HT-29): 7.77
- pIC50 (MCF7 [6]): 7.77
- pIC50 (A-431): 7.77

SMILES: CSc1nnc(-c2cc3c([nH]c4ccccc43)c(-c3cccc(O)c3)n2)o1
- pIC50 (A549 [1]): 5.34
- pIC50 (MCF7 [2]): 5.19
- pIC50 (MCF-12A): 4.42

SMILES: Cc1c(C(=O)C(=O)Nc2ccncc2)cc(-c2ccccc2)n1-c1ccccc1
- IC50 at 24 h [7]: > 100 µM
- pIC50 (T47D): 4.93

- pIC50 [3]: 4.60
SMILES: C=c1[nH]c2ccc(Br)cc2/c1=C/c1cc2c([nH]1)CN(CCN(CC)CC)C2=O

- pIC50 (A549 [8]): 5.46
- pIC50 (U-251): 5.64
SMILES: CC(=O)n1cc(C(=O)OC(C)C)c(C#Cc2ccc(Cl)cc2)c1C(=O)OC(C)C

- GI50 (HCT-15): 0.89 µM
SMILES: COc1ccc(OC)c(-c2nc(/C=C3/C(=O)N(Cc4ccccc4)c4ccc(Br)cc43)cc3c2[nH]c2ccccc23)c1
- IC50 at 24 h [9]: 49.8 µM

- pIC50 [3]: 7.15
SMILES: Cc1cc(NS(=O)(=O)c2ccc(N3C(=O)/C(=C/c4c[nH]c5ccccc45)N=C3c3ccccc3)cc2)no1

- pIC50 [10]: 7.85
- pIC50 [12]: 8.05
SMILES: CC(C)NCc1ccc(-c2[nH]c3cccc4c3c2C=NNC4=O)cc1
- CC50 (MCF7 [11]): 22.3 µM
- CC50 (MDA-MB-436): 0.98 µM

- IC50 (Mushroom tyrosinase [5]): 344.83 µM
SMILES: CNC(=S)N/N=C/c1ccc[nH]1

- pIC50 [4]: 7.12
SMILES: COCc1cccc(NC(=O)c2cc3sccc3n2C)c1CCOc1ccc(OC2CCNCC2)cc1

- IC50 (Mushroom tyrosinase [5]): 3.99 µM
SMILES: NC(=S)N/N=C/c1ccc[nH]1

- IC50 (Mushroom tyrosinase [13]): 0.97 µM
SMILES: C=Cc1ccccc1-c1ccn(C)c1C#N

- pIC50 (DNA topoisomerase 1): 4.55
- pIC50 [14]: 4.49
SMILES: CCNC(=S)NNC(=O)c1cc2c([nH]c3ccccc32)c(-c2cccc(O)c2)n1
- pIC50 (A549 [1]): 5.34
- pIC50 (MCF7 [2]): 5.14
- pIC50 (MCF-12A): 4.55

- pIC50 [3]: 5.79
SMILES: Cc1cc(NS(=O)(=O)c2ccc(N3C(=O)/C(=C/c4c[nH]c5ccccc45)N=C3c3ccc(Cl)cc3)cc2)no1

SMILES: COc1cccc2c1c(C(C)=O)cn2Cc1ccc(F)cc1
- IC50 (Mushroom tyrosinase [5]): 224 µM

- pIC50 (DNA topoisomerase 1): 4.55
- pIC50 [14]: 4.73
SMILES: Cc1ccc(NC(=S)NNC(=O)c2cc3c([nH]c4ccccc43)c(-c3cccc(O)c3)n2)cc1
- pIC50 (A549 [1]): 5.59
- pIC50 (MCF7 [2]): 5.18
- pIC50 (MCF-12A): 4.80

- pIC50 [15]: 7.89
- pIC50 (MKN-45): 8.00
SMILES: CNC(=O)c1ccc(-c2ccc3ncc(S(=O)(=O)n4ccc5ccccc54)n3c2)cc1F

SMILES: Cc1c(C(=O)C(=O)Nc2ccncc2)cc(-c2ccccc2)n1-c1ccc(F)cc1
- IC50 at 24 h [7]: > 100 µM
- pIC50 (MDA-MB-231): 4.93

- pIC50 (A549 [16]): 3.57
- pIC50 (A549 [17]): 4.14
- pIC50 (K562 [18]): 4.23
SMILES: Cc1cc(C)c(CNC(=O)c2c(C)cn(Cc3ccc(CC(F)(F)F)cc3)c2C)c(=O)[nH]1

SMILES: Cc1c(OCC(O)CN2CCN(C)CC2)cn2ncnc(Oc3ccc(NC(=O)C4(C(=O)Nc5ccc(F)cc5)CC4)cc3F)c12 (configuration not stated)
- pIC50 (HUVEC): 5.30

SMILES: COc1cccc2c1c(C(=O)C(=O)Nc1cc[nH]n1)cn2Cc1ccc(F)cc1
- IC50 (Mushroom tyrosinase [5]): 372 µM

- pIC50 [19]: 6.10
SMILES: Cc1c(C(=O)Nc2ccc(Oc3ncnc4[nH]ccc34)c(F)c2)nnn1-c1ccc(F)cc1
- pIC50 (A549 [20]): 5.32
- pIC50 (HepG2): 5.69
- pIC50 (MCF7 [21]): 5.54

- pIC50 [4]: 6.35
SMILES: CCN1CCC(Oc2ccc(OCCc3ccccc3NC(=O)c3cc4sccc4n3C)cc2)CC1

SMILES: Cc1cc(C)c(CNC(=O)c2c(C)n(Cc3ccccc3)c3ccc(OCCN4CCCCC4)cc23)c(=O)[nH]1
- pIC50 (K562 [22]): 4.28

From ChEMBL document CHEMBL5523717, “Pyrrole-containing hybrids as potential anticancer agents: An insight into current developments and structure-activity relationships” (Eur J Med Chem, 2024)
